From EPA's ToxValDB 9.5 (doi:10.2903/j.efsa.2010.1783)
≈ marks a conversion by molar mass, not a printed value.

Columns and labels:
[1] = system: Anas platyrhynchos; settings: acute; oral; unspecified; mortality
[2] = system: Colinus virginianus; settings: acute, oral, mortality
[3] = system: Coturnix japonica; settings: reproduction developmental; duration: 20 weeks
[4] = system: Daphnia magna; settings: acute; duration: 48 hours; mortality
[5] = system: Oncorhynchus mykiss; settings: acute; duration: 96 hours; mortality
[6] = system: Oryctolagus sp.; settings: subchronic; duration: 90 days; oral; hematological
[7] = system: Rattus norvegicus; settings: acute; oral; mortality
[8] = system: Tagia sp.; settings: acute; duration: 14 days; mortality

O=c1oc2ccccc2c(O)c1C(CC(O)c1ccc(-c2ccc(Br)cc2)cc1)c1ccccc1 (centres undefined) [Bromadiolone]
LD50 [1]: 1290 mg/kg
LD50 ([2]; duration: 5 days, diet): 8.3 mg/kg-day
LD50 [2]: 138 mg/kg
NOEL [3]: 0.011 mg/kg-day
LC50 [4]: 2 µg/mL (≈ 3.79 µM)
LC50 [5]: > 8 µg/mL
NOAEL [6]: 0.5 mg/kg-day
LD50 [7]: < 0.84 mg/kg
LC50 [8]: > 4.74 mg/kg
